Results: ChEMBL document CHEMBL1151129, “Two new bioactive carbazole alkaloids from the root bark of Clausena harmandiana” (J Nat Prod, 1988)
Values after ≈ are worked out from the molar mass of the structure shown.

Assays:
A549 = assay: Cytotoxicity against human A549 cells; type: functional; conditions: read-out: ED50 (the source's name)
Artemia = assay: Toxicity to brine shrimp; type: organism-based; conditions: in vivo
HT-29 = assay: Cytotoxicity against human HT-29 cells; type: functional; conditions: read-out: ED50 (the source's name)
[1] = Cytotoxicity against human 9KB cells; type: functional; conditions: read-out: ED50 (the source's name)
[2] = Cytotoxicity against mouse 9PS cells; type: functional; conditions: read-out: ED50 (the source's name)
[3] = Cytotoxicity against human KBMRI cells; type: functional; conditions: read-out: ED50 (the source's name)

Row | SMILES | EC50 (A549) [µg/mL] | LC50 (Artemia) [ppm] | EC50 (HT-29) [µg/mL] | EC50 [1] [µg/mL] | EC50 [2] [µg/mL] | EC50 [3] [µg/mL]
1 | COc1ccc2c(c1)[nH]c1cc(O)c(C=O)cc12 | 2.74 (≈ 11.4 µM) | 35 | 4 (≈ 16.6 µM) | 5.7 (≈ 23.6 µM) | > 10 | 4.48 (≈ 18.6 µM)
2 | COc1ccc2c(c1)[nH]c1c(CC=C(C)C)c(O)c(C=O)cc12 | 2.16 (≈ 6.98 µM) | > 500 | 1.36 (≈ 4.4 µM) | 3.01 (≈ 9.73 µM) | > 10 | 2.87 (≈ 9.28 µM)
